Consider one compound from patent publication US12077503B2, “Substituted cyclic amides and their use as herbicides” (FMC CORPORATION, priority 2015, dated 2024).

Type in all cases: in vivo
The subject of experiment [1] is Kochia (Kochia scoparia). In words: Test A postemergence. Conditions: Bassia scoparia, post-emergence, 240 h, 125 g ai/ha, Postemergence; visual injury after approximately 10 d; 0 to 100 scale where 0 is no effect and 100 is complete control; read-out: Plant response rating, Kochia. The gist of the method: (§1)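 Compounds were formulated in a non-phytotoxic solvent mixture with surfactant and applied as a preemergence directed soil spray after seeding, or sprayed postemergence over plants 2 to 10 cm tall at the one- to two-leaf stage. Evaluation after about 10 d compared treated with untreated controls, using a scale from 0 (no effect) to 100 (complete control).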

In experiment [2] the test system is Galium (catchweed bedstraw, Galium aparine). In words: Test A postemergence. Conditions: Galium, post-emergence, 240 h, 125 g ai/ha, Postemergence; visual injury after approximately 10 d; 0 to 100 scale where 0 is no effect and 100 is complete control; read-out: Plant response rating, Galium. The method in brief:
as §1

Experiment [3] concerns giant foxtail (Setaria faberii). In words: Test A postemergence. As to conditions: Setaria faberi, post-emergence, 240 h, 125 g ai/ha, Postemergence; visual injury after approximately 10 d; 0 to 100 scale where 0 is no effect and 100 is complete control; read-out: Plant response rating, Foxtail, Giant. The gist of the method: as §1
In experiment [4] the test system is wheat (Triticum aestivum). Kind of experiment: Test A postemergence. Conditions: Triticum aestivum, post-emergence, 240 h, 125 g ai/ha, Postemergence; visual injury after approximately 10 d; 0 to 100 scale where 0 is no effect and 100 is complete control; read-out: Plant response rating, Wheat. The gist of the method:
as §1

Experiment [5] relates to pigweed (Amaranthus retroflexus). In words: Test A postemergence. Conditions: Amaranthus retroflexus, post-emergence, 240 h, 125 g ai/ha, Postemergence; visual injury after approximately 10 d; 0 to 100 scale where 0 is no effect and 100 is complete control; read-out: Plant response rating, Pigweed. The gist of the method:
as §1

For experiment [6], the system named is Kochia (Kochia scoparia). In words: Test A preemergence. As to conditions: Bassia scoparia, pre-emergence, 240 h. The gist of the method:
as §1

In experiment [7] the test system is ryegrass, Italian (Italian ryegrass, Lolium multiflorum). In words: Test A preemergence. Conditions: Lolium multiflorum, pre-emergence, 240 h. The gist of the method: as §1
Experiment [8] deals with giant foxtail (Setaria faberii). Kind of experiment: Test A preemergence. As to conditions: Setaria faberi, pre-emergence, 240 h. The gist of the method: as §1
Experiment [9] relates to ragweed (common ragweed, Ambrosia elatior). Kind of experiment: Test A preemergence. As to conditions: Ambrosia artemisiifolia, pre-emergence, 240 h. The gist of the method:
as §1

In experiment [10] the test system is barnyardgrass (Echinochloa crus-galli). In words: Test A preemergence. Conditions: Echinochloa crus-galli, pre-emergence, 240 h. The method in brief:
as §1

Experiment [11] has as its system pigweed (Amaranthus retroflexus). Kind of experiment: Test A preemergence. As to conditions: Amaranthus retroflexus, pre-emergence, 240 h.
For experiment [12], the system named is rice (Oryra sativa). Kind of experiment: Test B flooded paddy test. As to conditions: Oryza sativa, Flood, 250 g ai/ha; scale of 0 to 100 where 0 is no effect and 100 is complete control; read-out: Rice plant response rating. The gist of the method: (§2)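 Plants at 2-leaf stage flooded to 3 cm above soil, with compounds applied directly to paddy water and that depth maintained. Plants kept in greenhouse 13–15 d. Visual rating versus controls on a 0 (no effect) to 100 (complete control) scale.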

Experiment [13] deals with ducksalad (Heteranthera limosa). Kind of experiment: Test B flooded paddy test. Conditions: Heteranthera limosa, Flood, 250 g ai/ha; scale of 0 to 100 where 0 is no effect and 100 is complete control; read-out: Ducksalad plant response rating. The gist of the method: as §2
For experiment [14], the system named is barnyardgrass (Echinochloa crus-galli). In words: Test B flooded paddy test. As to conditions: Echinochloa crus-galli, Flood, 250 g ai/ha; scale of 0 to 100 where 0 is no effect and 100 is complete control; read-out: Barnyardgrass plant response rating. The method in brief:
as §2

The subject of experiment [15] is sedge, umbrella (small-flower umbrella sedge, Cyperus difformis). Kind of experiment: Test B flooded paddy test. Conditions: Cyperus difformis, Flood, 250 g ai/ha; scale of 0 to 100 where 0 is no effect and 100 is complete control; read-out: Sedge, Umbrella plant response rating. The method in brief:
as §2

Molecules are shown by their SMILES.

For `CN1CC[C@H](c2cccc(Cl)c2)[C@@H](C(=O)Nc2ccccc2S(C)(=O)=O)C1=O` [Compound 923], the pest or weed control at 125 g/ha in [1] turned out to be 0%; in experiment [2], 0%; in [3], 0%; in experiment [5], 0%; in experiment [6] (125 g ai/ha, preemergence, 0 to 100 scale where 0 is no effect and 100 is complete control, read-out: Kochia plant response rating), 0%; in [7] (125 g ai/ha, preemergence, 0 to 100 scale where 0 is no effect and 100 is complete control, read-out: Ryegrass, Italian plant response rating) it was 0%. For the same compound, the pest or weed control at 125 g/ha in experiment [8] (125 g ai/ha, preemergence, 0 to 100 scale where 0 is no effect and 100 is complete control, read-out: Foxtail, Giant plant response rating) was found to be 0%; in experiment [9] (125 g ai/ha, preemergence, 0 to 100 scale where 0 is no effect and 100 is complete control, read-out: Ragweed plant response rating), 0%; in experiment [10] (125 g ai/ha, preemergence, 0 to 100 scale where 0 is no effect and 100 is complete control, read-out: Barnyardgrass plant response rating), 0%; in [11] (125 g ai/ha, preemergence, 0 to 100 scale where 0 is no effect and 100 is complete control, read-out: Pigweed plant response rating), 0%. In addition, the plant injury at 125 g/ha in experiment [4] was determined as 0%. For the same compound, the pest or weed control at 500 g/ha in experiment [6] (500 g ai/ha, Preemergence, visual injury vs untreated controls after approximately 10 d, read-out: Kochia plant response rating (0 to 100 scale where 0 is no effect and 100 is complete control)) turned out to be 0%; in experiment [7] (500 g ai/ha, Preemergence, visual injury vs untreated controls after approximately 10 d, read-out: Ryegrass, Italian plant response rating (0 to 100 scale where 0 is no effect and 100 is complete control)), 0%; in experiment [8] (500 g ai/ha, Preemergence, visual injury vs untreated controls after approximately 10 d, read-out: Foxtail, Giant plant response rating (0 to 100 scale where 0 is no effect and 100 is complete control)), 70%; in experiment [9] (500 g ai/ha, Preemergence, visual injury vs untreated controls after approximately 10 d, read-out: Ragweed plant response rating (0 to 100 scale where 0 is no effect and 100 is complete control)), 0%; in [10] (500 g ai/ha, Preemergence, visual injury vs untreated controls after approximately 10 d, read-out: Barnyardgrass plant response rating (0 to 100 scale where 0 is no effect and 100 is complete control)) it was 70%; in experiment [11] (500 g ai/ha, Preemergence, visual injury vs untreated controls after approximately 10 d, read-out: Pigweed plant response rating (0 to 100 scale where 0 is no effect and 100 is complete control)), 0%. Further, the pest or weed control at 250 g/ha in [12], in experiment [13], in [14] and in [15] was 0% each time.
